Patent US20260083751A1, “ALLOSTERIC MODULATORS OF ANDROGEN RECEPTOR COACTIVATOR RECRUITMENT FOR CRPC THERAPY” (University of Pittsburgh – Of the Commonwealth System of …, priority 2022, published 2026)
Entries after “also recorded” stand apart in the source; their conditions may differ.

What was measured:
[1] = tested on: PSA expression in C4-2 cells; assay: Western blot of PSA expression in C4-2 cells; assay type: cell-based; conditions: C4-2 cells, hits 20 μM (enzalutamide 25 μM) 3 h, ±10 nM DHT 24 h
Experimental: Cell lysate protein concentrations were determined in a bicinchoninic acid (BCA) assay. Equal amounts of cell protein were mixed with SDS-PAGE sample buffer and placed in a heat block at 100° C. for 5 min. The protein constituents of C4-2 cells were separated by SDS-PAGE on 10% separating gels, transferred to nitrocellulose membranes and western blots were probed overnight at 4° C. with a 1:1000 dilution of a rabbit anti-hPSA (Cell Signaling, Danvers, MA) primary antibody in Tris-buffered saline (TBS) Tween 20 (TBST) containing 5% non-fat milk. Membranes were washed 3× in TBST for 10 min, then incubated for 1 h at room temperature with a 1:10,000 dilution of the goat anti-rabbit IgG horse radish peroxidase (HRP) conjugated secondary antibody (Invitrogen, Carlsbad, CA) in TBST containing 5% non-fat milk. Western blots were then washed 3× in TBST and developed with Pierce enhanced chemiluminescence (ECL) western blotting substrate (Thermo Fisher Scientific, Waltham, MA). Images of western blot ECL bands were acquired on an iBright™ 1500 imaging system (Thermo Fisher Scientific, Waltham, MA) and quantified by iBright™ image analysis software.

[2] = biological target: T1, AR-TIF2 PPI (Homo sapiens, UniProt P10275); assay: AR-TIF2 PPIB assay, both formats stated jointly; assay type: cell-based; conditions: for Fold reduction in relative potency in both AR-TIF2 PPIB assay formats: analog versus its parent hit; for IC50: both assay formats, read-out: AR-TIF2 PPI inhibitor/disruptor IC50s
T1 construct: AR-LBD residues (662-919) were incorporated into one biosensor; expressed in transfected cells; host or cells: U-2 OS osteosarcoma cells, coinfected with recombinant adenoviruses
T1 sequence (P10275 662-919): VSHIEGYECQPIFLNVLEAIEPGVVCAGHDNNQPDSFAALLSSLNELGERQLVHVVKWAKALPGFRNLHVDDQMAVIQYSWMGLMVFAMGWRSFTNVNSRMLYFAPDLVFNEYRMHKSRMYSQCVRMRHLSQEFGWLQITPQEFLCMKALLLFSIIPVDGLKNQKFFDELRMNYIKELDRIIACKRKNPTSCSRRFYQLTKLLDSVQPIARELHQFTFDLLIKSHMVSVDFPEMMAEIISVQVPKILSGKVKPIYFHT
Experimental: AR-TIF2 Protein-Protein Interaction Biosensor Assay: The AR-TIF2 PPIB HCS assay was performed in U-2 OS osteosarcoma cells as described previously (Fancher et al., Assay Drug Dev Technol. 2016, 14:453-477; Fancher et al., Assay Drug Dev Technol. 2018, 16:297-319; Hua et al., Assay Drug Dev Technol. 2014, 12:395-418; Hua et al., Methods Mol Biol. 2018, 1683:211-227). Briefly, U-2 OS cells were coinfected with recombinant adenovirus biosensor expression constructs and seeded at 2,500 cells per well in 384-well collagen-coated microplates (Greiner Bio-One #781956) and plates were incubated overnight at 37° C. in 5% CO2 and 95% humidity. […] After the appropriate time, assay plates were fixed by transfer of 50 μL of pre-warmed (37° C.) 7.4% formaldehyde and 2 μg/mL Hoechst 33342 in PBS and incubation at room temperature for 30 minutes. Liquid was aspirated, plates were washed twice with 85 μL PBS, leaving the final wash in the plate. Plates were sealed with adhesive aluminum plate seals, and fluorescent images of three fields of view were acquired in the DAPI (Hoechst stained nuclei), FITC (TIF2-GFP) and Texas Red (AR-RFP) channels on an ImageXpress® Micro (IXM) automated HCS platform (Molecular Devices LLC, Sunnyvale, CA) using a 10× Plan Fluor 0.3 NA objective. Images were analyzed using the Translocation Enhanced (TE) image analysis module of the MetaXpress® software (Molecular Devices, LLC, San Jose, CA) as described previously (Fancher et al., Assay Drug Dev Technol. 2016, 14:453-477; Fancher et al., Assay Drug Dev Technol. 2018, 16:297-319; Hua et al., Assay Drug Dev Technol. 2014, 12:395-418; Hua et al., Methods Mol Biol. 2018, 1683:211-227).
A positional AR-TFI2 protein-protein interaction biosensor (PPIB) assay was used to identify small molecules that inhibited DHT-induced formation of AR-TIF2 PPIs and/or disrupted pre-existing AR-TIF2 PPIs (Fancher et al., Assay Drug Dev Technol 2016, 14(8):453-477; Fancher et al., Assay Drug Dev Technol 2018, 16(6):297-319; Hua et al., Assay Drug Dev Technol 2014, 12:395-418; Hua et al., Methods Mol biol 2018, 1683:211-227). AR-LBD residues (662-919) were incorporated into one biosensor and TIF2 residues (725-840) containing the 3rd NR box LXXLL motif into the second interacting biosensor partner (Id.) The AR-TIF2 PPIB recapitulates the orthosteric ligand (OSL)-induced translocation of AR from the cytoplasm into the nucleus where PPIs with TIF2 result in colocalization of both biosensors in the nucleolus. Using three libraries, a total of 143,535 compounds were screened—a 10,000-compound ChemDiv PPI focused diversity library, a 50,000-compound ChemBridge diversity library, and a 83,535-compound library provided by the NCI's Chemical Biology Consortium. The 10K and 50K diversity libraries were subsets of 142K and 810K parent libraries, enabling screening of a representative subset of >1×10^6 compounds. AR-TIF2 PPI inhibitor and disruptor actives were confirmed in the HCS assay and counter screens designed to identify and exclude nuisance/interference or non-selective compounds (Fancher et al., Assay Drug Dev Technol 2018, 16(6):297-319). […] An AR-GFP subcellular localization assay was used to exclude compounds that reduced AR expression and/or restricted its localization to the cytoplasm (Fancher et al., Assay Drug Dev Technol 2018, 16(6):297-319; Johnston et al., Assay Drug Dev Technol 2016, 14:226-239; Masodi et al., Mol Cancer Ther 2017, 16(10):2120-2129). Hits were structurally classified, clustered, and medicinal chemistry computational filters (PAINS/REOS) were used to exclude nuisance compounds and evaluate drug-like properties (Baell, J Med Chem 2010, 53(7):2719-2740; Baell, ACS Chem. Biol. 2018, 13:36-44; Johnston, Curr Opin Chem Biol 2011, 15:174-182; Walters, Adv Drug Deliv Rev 2002, 54:255-271). […]

| Fold reduction in relative potency in both AR-TIF2 PPIB assay formats [2] [fold] | Compound | Endogenous and DHT-enhanced PSA expression [1] | further results |
| --- | --- | --- | --- |
|  | Cc1ccccc1-c1cc(O)c2c(c1)CN(c1nc(C(N)=O)cs1)CCO2 [Compound S1-1] | substantially reduced; also recorded: inhibition |  |
| ~2 | Cc1nc(N)cc(N2CCOc3c(O)cc(-c4ccccc4C)cc3C2)n1 [Compound S1-2] |  |  |
|  | Cc1ccccc1-c1cc(O)c2c(c1)CN(c1cc(N)ncn1)CCO2 [Compound S1-4] |  | IC50 [2]: > 100 µM |
| 4 | COc1cc(-c2ccc(C)s2)cc2c1OCCN(c1nc(C(N)=O)cs1)C2 [Compound S1-5] |  |  |
|  | Cc1nsc(NC(=O)N2CCC(Sc3ccccc3C)CC2)n1 [Compound S2-6] | substantially reduced; also recorded: inhibition |  |
|  | Cc1nsc(NC(=O)N2CCC(Cn3ccnc3)CC2)n1 [Compound S2-7] |  | IC50 [2]: > 100 µM |
|  | Cc1c(-c2ccccc2F)[nH]c2ccc(CNC(=O)CCc3cn[nH]c3)cc12 [Compound S3-11] | substantially reduced; also recorded: inhibition |  |
| ~2 | Cc1c(-c2ccc(F)cc2)[nH]c2ccc(CNC(=O)c3ccc(CO)o3)cc12 [Compound S3-15] |  |  |
